Source: patent US20260297060A1, “COMPOUNDS FOR THE DEGRADATION OF MUTANT BRAF” (C4 THERAPEUTICS, INC., priority 2023, published 2026)

System: A375-NRAS^Q61K cells
Assay: CTGlo Cell Viability Assay, A375-NRAS^Q61K (A375.11) cells, 96 hours
Format: cell-based, human
Details: A375.11 (A375-NRAS^Q61K) cells
Outline: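 A375 cells carrying BRAF V600E and NRAS Q61K were seeded at 250 cells/well with a 10-point half-log dose series (max 10 μM final). After 96 h at 37 °C, viability was read as ATP luminescence (CellTiter-Glo), background-subtracted and normalized to DMSO (100%). GI50 from 4-parameter fit; Emax is the lowest % viability.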

[1] = Homo sapiens, 96 h, lowest % viability achieved

Compound	GI50 (Homo sapiens, 96 h) [µM]	Emax [1] [%]	GI50 [µM]	CTGlo A375.11 96 hours Emax (lowest % viability achieved)
CCN(C)S(=O)(=O)Nc1ccc(F)c(Oc2ccc3ncc([C@H]4COC5(CCN(C6CC7(C6)CN(c6cc8c(cc6F)c(N6CCC(=O)NC6=O)nn8C)C7)CC5)C4)nc3c2)c1C#N [Compound 158, (3S)-3-[7-[2-cyano-3-[[ethyl(methyl)sulfamoyl]amino]-6-fluoro-phenoxy]quinoxalin-2-yl]-8-[2-[3-(2,4-dioxohexahydropyrimidin-1-yl)-5-fluoro-1-methyl-indazol-6-yl]-2-azaspiro[3.3]heptan-6-yl]-1-oxa-8-azaspiro[4.5]decane]	< 1	50 to 90	–	–
CCN(C)S(=O)(=O)Nc1ccc(F)c(Oc2ccc3ncn([C@H]4COC5(CCC(N6CCC(c7cc8c(cc7F)c(N7CCC(=O)NC7=O)nn8C)C(F)(F)C6)CC5)C4)c(=O)c3c2)c1C#N (single isomer, unassigned) [Compound 39]	–	–	< 1	*** (<=50%)
CCN(C)S(=O)(=O)Nc1ccc(F)c(Oc2ccc3ncc([C@@H]4COC5(CCN(C6CCC(c7cc8c(cc7F)c(N7CCC(=O)NC7=O)nn8C)CC6)CC5)C4)nc3c2)c1C#N (single isomer, unassigned) [Compound 54]	< 1	< 50	–	–
CCN(C)S(=O)(=O)Nc1ccc(F)c(Oc2ccc3ncc([C@H]4COC5(CCN(C6CCC(c7cc8c(cc7F)c(N7CCC(=O)NC7=O)nn8C)CC6F)CC5)C4)nc3c2)c1C#N (single isomer, unassigned) [Compound 160]	< 1	50 to 90	–	–
CCN(C)S(=O)(=O)Nc1ccc(F)c(Oc2ccc3ncc(C4CC5(CCN(C6CC7(C6)CN(c6cc8c(cc6F)c(N6CCC(=O)NC6=O)nn8C)C7)CC5)C4)nc3c2)c1C#N (centres unmarked) [Compound 177, 7-[2-cyano-3-[[ethyl(methyl)sulfamoyl]amino]-6-fluoro-phenoxy]-2-[7-[2-[3-(2,4-dioxohexahydropyrimidin-1-yl)-5-fluoro-1-methyl-indazol-6-yl]-2-azaspiro[3.3]heptan-6-yl]-7-azaspiro[3.5]nonan-2-yl]quinoxaline]	< 1	50 to 90	–	–
CCN(C)S(=O)(=O)Nc1ccc(F)c(Oc2ccc3ncn([C@H]4COC5(CCN(C6CC(c7cc8c(cc7F)c(N7CCC(=O)NC7=O)nn8C)C6)CC5)C4)c(=O)c3c2)c1C#N (single isomer, unassigned) [Compound 70]	< 1	< 50	–	–
Cn1nc(N2CCC(=O)NC2=O)c2cc(F)c(N3CC4(CC(N5CCC6(CC5)CC(n5cnc7ccc(Oc8c(F)ccc(NS(=O)(=O)N9C[C@H]%10C[C@H]%10C9)c8C#N)cc7c5=O)C6)C4)C3)cc21 (stereo partly drawn) [Compound 277, (1R,5S)-N-[2-cyano-3-[3-[7-[2-[3-(2,4-dioxohexahydropyrimidin-1-yl)-5-fluoro-1-methyl-indazol-6-yl]-2-azaspiro[3.3]heptan-6-yl]-7-azaspiro[3.5]nonan-2-yl]-4-oxo-quinazolin-6-yl]oxy-4-fluoro-phenyl]-3-azabicyclo[3.1.0]hexane-3-sulfonamide]	< 1	50 to 90	–	–
CCN(C)S(=O)(=O)Nc1ccc(F)c(Oc2ccc3ncn([C@H]4COC5(CCN(C6CCC(c7cc8c(cc7F)c(N7CCC(=O)NC7=O)nn8C)CC6)CC5)C4)c(=O)c3c2F)c1C#N (single isomer, unassigned) [Compound 41]	< 1	< 50	–	–
CCN(C)S(=O)(=O)Nc1ccc(F)c(Oc2ccc3ncn([C@H]4COC5(CCN(C6CCC(c7cc8c(cc7F)c(N7CCC(=O)NC7=O)nn8C)CC6F)CC5)C4)c(=O)c3c2)c1C#N (single isomer, unassigned) [Compound 28]	< 1	< 50	–	–
CCN(C)S(=O)(=O)Nc1ccc(F)c(Oc2ccc3ncn(C4CC5(CCN(C6CCC(c7cc8c(cc7F)c(N7CCC(=O)NC7=O)nn8C)CC6)CC5)C4)c(=O)c3c2)c1C#N (single isomer, unassigned) [Compound 8, 6-[2-cyano-3-[[ethyl(methyl)sulfamoyl]amino]-6-fluoro-phenoxy]-3-[7-[4-[3-(2,4-dioxohexahydropyrimidin-1-yl)-5-fluoro-1-methyl-indazol-6-yl]cyclohexyl]-7-azaspiro[3.5]nonan-2-yl]-4-oxo-quinazoline]	< 1	< 50	–	–
CCN(C)S(=O)(=O)Nc1ccc(F)c(Oc2ccc3ncn(C4CC5(CCN(C6CCC(c7cc8c(cc7F)c(N7CCC(=O)NC7=O)nn8C)CC6F)CC5)C4)c(=O)c3c2)c1C#N (single isomer, unassigned) [Compound 83, 6-[2-cyano-3-[[ethyl(methyl)sulfamoyl]amino]-6-fluoro-phenoxy]-3-[7-[4-[3-(2,4-dioxohexahydropyrimidin-1-yl)-5-fluoro-1-methyl-indazol-6-yl]-2-fluoro-cyclohexyl]-7-azaspiro[3.5]nonan-2-yl]-4-oxo-quinazoline]	< 1	< 50	–	–
CCN(C)S(=O)(=O)Nc1ccc(F)c(Oc2ccc3ncn([C@H]4COC5(CCC(N6CCN(c7ccc(NC8CCC(=O)NC8=O)cc7F)CC6)CC5)C4)c(=O)c3c2)c1C#N (stereo partly drawn) [Compound 40, 6-[2-cyano-3-[[ethyl(methyl)sulfamoyl]amino]-6-fluoro-phenoxy]-3-[(3R)-8-[4-[4-[(2,6-dioxo-3-piperidyl)amino]-2-fluoro-phenyl]piperazin-1-yl]-1-oxaspiro[4.5]decan-3-yl]-4-oxo-quinazoline]	1 to 10	50 to 90	–	–
CCN(C)S(=O)(=O)Nc1ccc(F)c(Nc2ccc3ncn([C@@H]4COC5(CCN(C6CCC(c7ccc(NC8CCC(=O)NC8=O)cc7F)CC6)CC5)C4)c(=O)c3c2F)c1C#N (single isomer, unassigned) [Compound 90]	< 1	50 to 90	–	–
CN(CCO)S(=O)(=O)Nc1ccc(F)c(Oc2ccc3ncn([C@H]4COC5(CCN(C6CCC(c7cc8c(cc7F)c(N7CCC(=O)NC7=O)nn8C)CC6)CC5)C4)c(=O)c3c2)c1C#N (single isomer, unassigned) [Compound 73]	1 to 10	< 50	–	–
Cn1nc(N2CCC(=O)NC2=O)c2cc(F)c(N3CC4(CC(N5CCC6(CC5)CC(n5cnc7ccc(Oc8c(F)ccc(NS(=O)(=O)C9CCC9)c8C#N)cc7c5=O)C6)C4)C3)cc21 [Compound 259, N-[2-cyano-3-[3-[7-[2-[3-(2,4-dioxohexahydropyrimidin-1-yl)-5-fluoro-1-methyl-indazol-6-yl]-2-azaspiro[3.3]heptan-6-yl]-7-azaspiro[3.5]nonan-2-yl]-4-oxo-quinazolin-6-yl]oxy-4-fluoro-phenyl]cyclobutanesulfonamide]	< 1	< 50	–	–
CO[C@H]1CCN(S(=O)(=O)Nc2ccc(F)c(Oc3ccc4ncn(C5CC6(CCN(C7CCC(c8cc9c(cc8F)c(N8CCC(=O)NC8=O)nn9C)CC7)CC6)C5)c(=O)c4c3)c2C#N)C1 (single isomer, unassigned) [Compound 103]	–	50 to 90	> 10	–
CCN(C)S(=O)(=O)Nc1ccc(F)c(Oc2ccc3ncn(C4CC5(CCN(C6CCN(c7cc8c(cc7F)c(N7CCC(=O)NC7=O)nn8C)CC6)CC5)C4)c(=O)c3c2)c1C#N [Compound 156, 6-[2-cyano-3-[[ethyl(methyl)sulfamoyl]amino]-6-fluoro-phenoxy]-3-[7-[1-[3-(2,4-dioxohexahydropyrimidin-1-yl)-5-fluoro-1-methyl-indazol-6-yl]-4-piperidyl]-7-azaspiro[3.5]nonan-2-yl]-4-oxo-quinazoline]	< 1	50 to 90	–	–
CN(CCO)S(=O)(=O)Nc1ccc(F)c(Oc2ccc3ncn(C4CC5(CCN(C6CCC(c7ccc(NC8CCC(=O)NC8=O)cc7F)CC6)CC5)C4)c(=O)c3c2)c1C#N (single isomer, unassigned) [Compound 79, 6-[2-cyano-6-fluoro-3-[[2-hydroxyethyl(methyl)sulfamoyl]amino]phenoxy]-3-[7-[4-[4-[(2,6-dioxo-3-piperidyl)amino]-2-fluoro-phenyl]cyclohexyl]-7-azaspiro[3.5]nonan-2-yl]-4-oxo-quinazoline]	–	50 to 90	1 to 10	–
CCN(C)S(=O)(=O)Nc1ccc(F)c(Oc2ccc3ncc([C@@H]4COC5(CCN(C6CCC(c7ccc(NC8CCC(=O)NC8=O)cc7F)CC6)CC5)C4)nc3c2)c1C#N (single isomer, unassigned) [Compound 60]	–	< 50	< 1	–
CCN(C)S(=O)(=O)Nc1ccc(F)c(Oc2ccc3ncn([C@H]4COC5(CCN(C6CC7(C6)CN(c6cc8c(cc6F)c(N6CCC(=O)NC6=O)nn8C)C7)CC5)C4)c(=O)c3c2)c1C#N [Compound 26, (3R)-3-[6-[2-cyano-3-[[ethyl(methyl)sulfamoyl]amino]-6-fluoro-phenoxy]-4-oxo-quinazolin-3-yl]-8-[2-[3-(2,4-dioxohexahydropyrimidin-1-yl)-5-fluoro-1-methyl-indazol-6-yl]-2-azaspiro[3.3]heptan-6-yl]-1-oxa-8-azaspiro[4.5]decane]	< 1	50 to 90	–	–
CCN(C)S(=O)(=O)Nc1ccc(F)c(C(=O)c2ccc3ncn(C4CC5(CCN(C6CCC(c7cc8c(cc7F)c(N7CCC(=O)NC7=O)nn8C)CC6)CC5)C4)c(=O)c3c2)c1F (single isomer, unassigned) [Compound 182, 3-[7-[4-[3-(2,4-dioxohexahydropyrimidin-1-yl)-5-fluoro-1-methyl-indazol-6-yl]cyclohexyl]-7-azaspiro[3.5]nonan-2-yl]-6-[3-[[ethyl(methyl)sulfamoyl]amino]-2,6-difluoro-benzoyl]-4-oxo-quinazoline]	1 to 10	50 to 90	–	–
CN(CCO)S(=O)(=O)Nc1ccc(F)c(Oc2ccc3ncn([C@H]4COC5(CCN(C6CCC(c7ccc(NC8CCC(=O)NC8=O)cc7F)CC6)CC5)C4)c(=O)c3c2)c1C#N (single isomer, unassigned) [Compound 76]	< 1	< 50	–	–
